The values below come from ChEMBL document CHEMBL4616693, “Identification of Inhibitors of Thrombospondin 1 Activation of TGF-β” (ACS Med Chem Lett, 2020).

Peptide text beside a SMILES is read from it. Bounds are passed on as bounds.

The target in data set [1] is T1, Thrombospondin-1 (Homo sapiens, UniProt P07996). Description: Inhibition of TSP1 in human myeloma cells assessed reduction in TGFbeta activity incubated for 1 hr by ELISA. Format: cell-based.
Target sequence in this assay (P07996 whole entry): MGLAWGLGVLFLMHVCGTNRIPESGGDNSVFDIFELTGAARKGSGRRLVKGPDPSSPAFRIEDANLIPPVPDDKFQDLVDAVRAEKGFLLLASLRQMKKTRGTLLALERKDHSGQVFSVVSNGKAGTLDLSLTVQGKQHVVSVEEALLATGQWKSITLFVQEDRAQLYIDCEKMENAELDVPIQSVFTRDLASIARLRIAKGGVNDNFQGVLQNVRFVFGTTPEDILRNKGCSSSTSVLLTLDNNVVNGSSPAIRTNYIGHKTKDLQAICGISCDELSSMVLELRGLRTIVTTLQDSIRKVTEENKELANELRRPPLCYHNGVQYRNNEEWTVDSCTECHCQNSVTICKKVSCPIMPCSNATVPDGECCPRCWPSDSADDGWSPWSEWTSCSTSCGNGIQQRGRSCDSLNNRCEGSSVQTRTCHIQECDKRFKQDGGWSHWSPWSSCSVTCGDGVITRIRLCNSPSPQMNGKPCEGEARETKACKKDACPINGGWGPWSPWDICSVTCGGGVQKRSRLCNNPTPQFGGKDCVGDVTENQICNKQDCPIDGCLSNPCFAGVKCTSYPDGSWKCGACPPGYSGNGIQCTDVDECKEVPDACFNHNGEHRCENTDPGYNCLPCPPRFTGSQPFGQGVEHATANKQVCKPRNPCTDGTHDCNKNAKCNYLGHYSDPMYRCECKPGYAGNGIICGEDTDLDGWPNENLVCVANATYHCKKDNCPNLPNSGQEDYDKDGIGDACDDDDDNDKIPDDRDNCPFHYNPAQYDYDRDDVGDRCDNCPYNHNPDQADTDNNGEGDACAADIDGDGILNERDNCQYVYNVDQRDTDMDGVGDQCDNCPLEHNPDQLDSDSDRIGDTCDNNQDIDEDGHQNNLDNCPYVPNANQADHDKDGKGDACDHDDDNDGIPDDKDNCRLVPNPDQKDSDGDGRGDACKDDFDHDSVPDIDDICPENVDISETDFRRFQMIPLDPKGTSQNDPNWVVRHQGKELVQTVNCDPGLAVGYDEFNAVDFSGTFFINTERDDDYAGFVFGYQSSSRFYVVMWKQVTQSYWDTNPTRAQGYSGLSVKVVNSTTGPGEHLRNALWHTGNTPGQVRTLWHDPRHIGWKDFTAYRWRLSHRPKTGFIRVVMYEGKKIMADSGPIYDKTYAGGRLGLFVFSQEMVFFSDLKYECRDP
Data set [2] can be described thus: Half life in CD1 mouse at 1 mg/kg, iv by LC-MS/MS analysis. The settings on record: in vivo. The data set is classed as ADME, organism-based.
Data set [3] deals with T1, Thrombospondin-1. Nature of the data set: Inhibition of recombinant human TSP1 P123 expressed in baculovirus system binding to recombinant human LAP at 10 nM preincubated for 10 mins followed by recombinant human LAP addition and measured after 2 hrs by ELISA relative to control. (In general: In an ELISA, binding on a coated surface is turned into a signal by an enzyme label.)
Target sequence in this assay (P07996 19-1170 limits assumed): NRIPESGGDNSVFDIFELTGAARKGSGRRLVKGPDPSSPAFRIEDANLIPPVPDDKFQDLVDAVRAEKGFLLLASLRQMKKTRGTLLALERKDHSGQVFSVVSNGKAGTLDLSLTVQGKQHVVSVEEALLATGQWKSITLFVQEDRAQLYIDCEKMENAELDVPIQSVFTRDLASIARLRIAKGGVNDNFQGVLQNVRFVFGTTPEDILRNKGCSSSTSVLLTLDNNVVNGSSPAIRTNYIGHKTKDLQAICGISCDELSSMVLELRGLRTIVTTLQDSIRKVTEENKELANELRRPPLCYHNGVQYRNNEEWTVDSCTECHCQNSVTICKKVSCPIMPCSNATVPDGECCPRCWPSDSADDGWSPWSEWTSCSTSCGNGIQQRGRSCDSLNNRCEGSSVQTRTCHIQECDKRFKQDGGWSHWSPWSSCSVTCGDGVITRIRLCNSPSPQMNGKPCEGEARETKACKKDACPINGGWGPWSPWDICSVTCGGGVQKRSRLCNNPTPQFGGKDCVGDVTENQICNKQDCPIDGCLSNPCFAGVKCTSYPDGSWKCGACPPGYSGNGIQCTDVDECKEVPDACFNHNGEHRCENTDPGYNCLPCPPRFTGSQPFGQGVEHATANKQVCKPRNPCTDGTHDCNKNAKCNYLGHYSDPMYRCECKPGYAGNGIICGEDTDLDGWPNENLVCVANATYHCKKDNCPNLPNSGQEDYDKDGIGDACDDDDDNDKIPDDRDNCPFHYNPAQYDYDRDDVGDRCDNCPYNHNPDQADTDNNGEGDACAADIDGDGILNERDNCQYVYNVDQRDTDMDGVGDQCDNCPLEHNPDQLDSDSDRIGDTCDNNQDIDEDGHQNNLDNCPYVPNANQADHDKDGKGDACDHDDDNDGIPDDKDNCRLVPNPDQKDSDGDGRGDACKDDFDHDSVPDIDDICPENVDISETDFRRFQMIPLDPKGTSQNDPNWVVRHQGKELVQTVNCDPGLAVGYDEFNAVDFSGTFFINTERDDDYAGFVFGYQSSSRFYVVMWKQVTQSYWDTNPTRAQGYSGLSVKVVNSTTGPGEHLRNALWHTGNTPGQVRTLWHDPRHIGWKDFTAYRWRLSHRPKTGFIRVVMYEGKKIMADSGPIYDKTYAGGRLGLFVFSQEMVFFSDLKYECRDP

Data set [4] is described as follows: Oral bioavailability in CD1 mouse at 5 mg/kg by LC-MS/MS analysis. The data set is classed as ADME, organism-based. The settings on record: in vivo.
The nature of data set [5]: Microsomal stability in human liver microsomes assessed as half life measured after 45 mins in presence of NADPH by LC-MS/MS analysis. Format: ADME, Microsome.
Data set [6] in a line: Plasma concentration in CD1 mouse at 1 mg/kg, iv or 5 mg/kg, po measured after 2 hrs by LC-MS/MS analysis. Format: ADME, organism-based.
Data set [7] can be described thus: Microsomal stability in rat liver microsomes assessed as half life measured after 45 mins in presence of NADPH by LC-MS/MS analysis. Format: ADME, Microsome. (Liver microsomes are vesicles of endoplasmic reticulum, rich in cytochrome P450 enzymes.)
Data set [8] can be described thus: Plasma concentration in CD1 mouse at 1 mg/kg, iv or 5 mg/kg, po measured after 1 hr by LC-MS/MS analysis. The data set is classed as ADME, organism-based.
Data set [9] in a line: Cmax in ip dosed CD1 mouse measured after 0.25 hrs by LC-MS/MS analysis. The data set is classed as ADME, organism-based. Also noted: route intraperitoneal. The settings on record: in vivo.
Data set [10] is described as follows: Half life in ip dosed CD1 mouse by LC-MS/MS analysis. The note with it: in vivo. The data set is classed as ADME, organism-based.

Broadly, the IC50 is the concentration needed to halve the response being measured. On to `CC(=O)N[C@H](CO)C(=O)N[C@@H](CCCCN)C(=O)N[C@@H](CC(C)C)C(N)=O` (HELM PEPTIDE1{[ac].[dS].K.L.[am]}$$$$V2.0), for which the IC50 on Thrombospondin-1 [1] was 0.38 nM. Same read-out and setting: for `CC(=O)N[C@@H](CO)C(=O)N[C@@H](CCCCN)C(=O)N[C@@H](CC(C)C)C(=O)N(C)C` (HELM PEPTIDE1{[ac].S.K.L.[CN(C)[*:1]]}$$$$V2.0) the value was 3.31 nM. Still for that read-out and setting: for `CC(=O)N[C@@H](CC(N)=O)C(=O)N[C@@H](CCCCN)C(=O)N[C@@H](CC(C)C)C(N)=O` (Ac-Asn-Lys-Leu-NH2) the value was 9.55 nM; for `CC(=O)N[C@@H](CO)C(=O)N[C@H](CCCCN)C(=O)N[C@@H](CC(C)C)C(N)=O` (HELM PEPTIDE1{[ac].S.[dK].L.[am]}$$$$V2.0), 1.7 nM; for `CNCCCC[C@H](NC(=O)[C@H](CO)NC(C)=O)C(=O)N[C@@H](CC(C)C)C(N)=O` (HELM PEPTIDE1{[ac].S.[CNCCCC[C@H](N[*:1])C(=O)[*:2]].L.[am]}$$$$V2.0), 4.37 nM.

By half-life is commonly meant how long it takes for the measured level to halve. As usually defined, the inhibition is the percentage by which the read-out fell short of the control. `CC(=O)N[C@@H](CO)C(=O)N[C@@H](CCCCN)C(=O)N[C@@H](CC(C)C)C(N)=O` (Ac-Ser-Lys-Leu-NH2): inhibition against Thrombospondin-1 [1] was half-maximal at 5.25 nM (IC50). The half-life in data set [2] was 1.9 h. Also, the inhibition at Thrombospondin-1 [3] is 85%. For the molecule `CC(=O)N[C@@H](CO)C(=O)N[C@@H](CCCCN)C(=O)N(C)[C@@H](CC(C)C)C(N)=O` (HELM PEPTIDE1{[ac].S.K.[meL].[am]}$$$$V2.0), the IC50 on Thrombospondin-1 [1] was 2.24 nM. Regarding `CNC(=O)[C@H](CC(C)C)NC(=O)[C@@H](CCCCN)NC(=O)[C@@H](NC(C)=O)[C@@H](C)O`, on Thrombospondin-1 [1], the IC50 was 2.88 nM. Still for that read-out and setting: for `CC(=O)N[C@@H](CO)C(=O)N[C@@H](CCCCN)C(=O)N[C@H](CC(C)C)C(N)=O` (HELM PEPTIDE1{[ac].S.K.[dL].[am]}$$$$V2.0) the value was 2 nM; for `CC(=O)NCC(=O)N[C@@H](CCCCN)C(=O)N[C@@H](CC(C)C)C(N)=O` (Ac-Gly-Lys-Leu-NH2), 14.1 nM. One may read the bioavailability as dose-corrected exposure relative to a reference, in per cent. Read a high bioavailability as much systemic uptake. By Cmax is commonly meant the highest concentration seen after dosing. `CC(=O)N[C@@H](CCCN)C(=O)NC(C)(C)C(N)=O` displayed a bioavailability in data set [4] of 9%. In addition, the half-life in [5] was greater than 5 h; in [7] it was 2.83 h; in data set [2], 0.2 h; in data set [10] it was 7 h. The molecule also yielded a concentration at 2 h in data set [6] of 2.1 µM. Further, the IC50 at Thrombospondin-1 [1] was 7.59 nM. Also, the inhibition on Thrombospondin-1 [3] was determined as 85%. The molecule also returned a concentration at 1 h in data set [8] of 11.6 µM. For the same molecule, the Cmax in data set [9] worked out at 19400 ng/mL. With `CC(=O)N[C@@H](CO)C(=O)N[C@@H](CCCCN(C)C)C(=O)N[C@@H](CC(C)C)C(N)=O` (HELM PEPTIDE1{[ac].S.[CN(C)CCCC[C@H](N[*:1])C(=O)[*:2]].L.[am]}$$$$V2.0), the 50% inhibitory concentration (IC50) against Thrombospondin-1 [1] is 1.51 nM.

Turning to `CC(=O)N[C@@H](CO)C(=O)N[C@@H](CCCN)C(=O)NC(C)(C)C(N)=O` (HELM PEPTIDE1{[ac].S.[Orn].[Aib].[am]}$$$$V2.0), the inhibition on Thrombospondin-1 [3] is 34%. Consider `CC(=O)NCCCC[C@H](NC(=O)[C@H](CO)NC(C)=O)C(=O)N[C@@H](CC(C)C)C(N)=O` (Ac-Ser-Lys(Ac)-Leu-NH2), for which it took 15.1 nM to reach half-maximal inhibition on Thrombospondin-1 [1] (IC50). Turning to `CCC(=O)N[C@@H](CO)C(=O)N[C@@H](CCCCN)C(=O)N[C@@H](CC(C)C)C(N)=O` (HELM PEPTIDE1{[CCC(=O)[*:2]].S.K.L.[am]}$$$$V2.0), the IC50 at Thrombospondin-1 [1] was 13.5 nM.
